Assay results: PubChem BioAssay AID256 (DTP/NCI, 2004)
Toxic doses and inconclusive results are not listed. Rule for the calls: active = survival T/C of 150% or more; inactive = T/C below 125% in these data.

Test system: CD2F1 mice, L1210 leukemia ip, survival T/C
Experiment: NCI In Vivo Anticancer Drug Screen. Data for tumor model L1210 Leukemia (intraperitoneal) in CD2F1 (CDF1) mice
Details: endpoint: mean survival time, higher = longer survival
Description: The antitumor activity of compounds was measured in mice bearing transplantable tumors. Survival or tumor size were measured and the results are expressed as the measurement made in the treated group (T) divided by the measurement made in the vehicle treated control group (C). The tumor model used in this assay is L1210 Leukemia (intraperitoneal) in CD2F1 (CDF1) mice

[1] = dose: 100.0 mg/kg/injection, schedule: Q04DX003 (ip), vehicle: saline with Tween-80
[2] = dose: 200.0 mg/kg/injection, schedule: Q04DX003 (ip), vehicle: saline with Tween-80
[3] = dose: 400.0 mg/kg/injection, schedule: Q04DX003 (ip), vehicle: saline with Tween-80
[4] = dose: 25.0 mg/kg/injection, schedule: Q01DX009 (ip), vehicle: saline with Tween-80
[5] = dose: 50.0 mg/kg/injection, schedule: Q01DX009 (ip), vehicle: saline with Tween-80
[6] = dose: 100.0 mg/kg/injection, schedule: Q01DX009 (ip), vehicle: saline with Tween-80
[7] = dose: 12.5 mg/kg/injection, schedule: Q01DX009 (ip), vehicle: saline with Tween-80
[8] = dose: 400.0 mg/kg/injection, schedule: Q01DX009 (ip), vehicle: saline with Tween-80
[9] = dose: 200.0 mg/kg/injection, schedule: Q01DX009 (ip), vehicle: saline with Tween-80
[10] = dose: 50.0 mg/kg/injection, schedule: Q01DX009 (ip), vehicle: saline
[11] = dose: 100.0 mg/kg/injection, schedule: Q01DX009 (ip), vehicle: saline

Measured: T/C

CC(C)CSCC1OC(n2cnc3c(N)nccc32)C(O)C1O (stereo not drawn)
inactive: dose: 3.13 mg/kg/injection, schedule: Q03HX024 (ip), vehicle: distilled water + Tween-80 100 % of control | dose: 6.25 mg/kg/injection, schedule: Q03HX024 (ip), vehicle: distilled water + Tween-80 105 % of control | dose: 12.5 mg/kg/injection, schedule: Q01DX005 (ip), vehicle: distilled water + Tween-80 107 % of control | dose: 12.5 mg/kg/injection, schedule: Q03HX024 (ip), vehicle: distilled water + Tween-80 96 % of control | dose: 25.0 mg/kg/injection, schedule: Q01DX005 (ip), vehicle: distilled water + Tween-80 115 % of control | dose: 25.0 mg/kg/injection, schedule: Q03HX024 (ip), vehicle: distilled water + Tween-80 100 % of control | dose: 50.0 mg/kg/injection, schedule: Q01DX005 (ip), vehicle: distilled water + Tween-80 100 % of control | dose: 50.0 mg/kg/injection, schedule: Q03HX024 (ip), vehicle: distilled water + Tween-80 96 % of control | dose: 100.0 mg/kg/injection, schedule: Q01DX005 (ip), vehicle: distilled water + Tween-80 88 % of control | dose: 100.0 mg/kg/injection, schedule: Q03HX024 (ip), vehicle: distilled water + Tween-80 86 % of control

CC1(C)C(=O)C2(I)CCC1C2 (stereo not drawn)
inactive: [1] 101 % of control | [2] 98 % of control | [3] 98 % of control

O=C(O)CCC(NC(=O)OCc1ccccc1)C(=O)OCc1ccccc1 (stereo not drawn)
inactive: [1] 95 % of control | [2] 93 % of control | [3] 96 % of control

COc1cc(/C=C/c2ccccn2)cc(OC)c1OC
inactive: [1] 101 % of control | [2] 91 % of control

CCC1CCC(NC(=O)NC)CC1 (stereo not drawn)
inactive: [1] 99 % of control | [2] 92 % of control

COc1cccc(/C(C)=N\NC(=O)c2ccccc2)c1
inactive: [4] 98 % of control | [5] 95 % of control | [6] 88 % of control | [1] 96 % of control

NC1C(O)C(N)C(O)C(O)C1O (stereo not drawn)
inactive: dose: 100.0 mg/kg/injection, schedule: Q01DX009 (ip), vehicle: saline sonified 90 % of control | dose: 200.0 mg/kg/injection, schedule: Q01DX009 (ip), vehicle: saline sonified 95 % of control | dose: 400.0 mg/kg/injection, schedule: Q01DX009 (ip), vehicle: saline sonified 95 % of control

CCNc1ncnc2nncnc12
inactive: dose: 100.0 mg/kg/injection, schedule: Q01DX001 (ip), vehicle: carboxymethylcellulose (CMC) 98 % of control

N#C[Se]C[Se]C#N
inactive: dose: 6.25 mg/kg/injection, schedule: Q01DX001 (ip), vehicle: saline with Tween-80 104 % of control

O=P1(N2CC2)OCCCN1CCCl (stereo not drawn)
inactive: dose: 3.8 mg/kg/injection, schedule: Q01DX001 (ip), vehicle: distilled water + Tween-80 102 % of control | dose: 7.5 mg/kg/injection, schedule: Q01DX001 (ip), vehicle: distilled water + Tween-80 106 % of control | dose: 15.0 mg/kg/injection, schedule: Q01DX001 (ip), vehicle: distilled water + Tween-80 107 % of control | dose: 30.0 mg/kg/injection, schedule: Q01DX001 (ip), vehicle: distilled water + Tween-80 98 % of control | dose: 62.5 mg/kg/injection, schedule: Q01DX001 (ip), vehicle: saline with Tween-80 110 % of control

Cn1ccc(=Nc2ccc(NC(=O)c3ccc(N=c4ccn(C)c5ccc([N+](=O)[O-])cc45)cc3[N+](=O)[O-])cc2)cc1
inactive: [7] 101 % of control | [4] 113 % of control | [5] 119 % of control | [6] 119 % of control | [8] 95 % of control

Brc1cscc1-c1cccc2ccccc12
inactive: [7] 95 % of control | [4] 95 % of control | [5] 95 % of control

COc1ccc(CC2=NCCN2)cc1
inactive: [4] 98 % of control | [5] 98 % of control | [6] 98 % of control

Fc1ccc2c(c1)CC(CBr)O2 (stereo not drawn)
inactive: [6] 100 % of control | [9] 105 % of control | [8] 96 % of control

CNCc1ccc([N+](=O)[O-])cc1
inactive: [10] 104 % of control | [11] 100 % of control | dose: 200.0 mg/kg/injection, schedule: Q01DX009 (ip), vehicle: saline 93 % of control

CN(C)N=Nc1ccc(C(F)(F)F)cc1
inactive: dose: 118.0 mg/kg/injection, schedule: Q01DX009 (ip), vehicle: Klucel (hydroxypropylcellulose) (HPC) 101 % of control | dose: 177.0 mg/kg/injection, schedule: Q01DX009 (ip), vehicle: Klucel (hydroxypropylcellulose) (HPC) 102 % of control

C(=Nc1ccc(-c2ccccc2)cc1)c1ccccc1
inactive: [6] 87 % of control | [8] 91 % of control

CCCN(CCC)CN(CCC)CCC
inactive: [10] 98 % of control | [11] 105 % of control

Cc1ccccc1N=Nc1ccccc1
inactive: dose: 100.0 mg/kg/injection, schedule: Q01DX001 (ip), vehicle: saline with Tween-80 104 % of control | dose: 200.0 mg/kg/injection, schedule: Q01DX001 (ip), vehicle: saline with Tween-80 96 % of control | dose: 400.0 mg/kg/injection, schedule: Q01DX001 (ip), vehicle: saline with Tween-80 101 % of control

CC(=O)Nc1ccc(C)c(Cl)c1
inactive: [6] 96 % of control | [1] 101 % of control | [9] 94 % of control | [2] 103 % of control | [8] 88 % of control | [3] 101 % of control

CSC(Cl)=C(Cl)Cl
inactive: [4] 97 % of control | [5] 95 % of control | [6] 97 % of control

Nc1ncnc2nc(-c3ccccc3)[nH]c12
inactive: [1] 100 % of control | [2] 99 % of control | [3] 99 % of control

O/N=C(/Cl)c1ccccn1
inactive: dose: 1.88 mg/kg/injection, schedule: Q04DX003 (ip), vehicle: saline 102 % of control | dose: 3.75 mg/kg/injection, schedule: Q04DX003 (ip), vehicle: saline 94 % of control | dose: 7.5 mg/kg/injection, schedule: Q01DX001 (ip), vehicle: saline 101 % of control | dose: 7.5 mg/kg/injection, schedule: Q04DX003 (ip), vehicle: saline 94 % of control

C(OC[C@H]1CC[C@@H](COCC2CO2)O1)C1CO1 (stereo partly drawn)
inactive: dose: 65.0 mg/kg/injection, schedule: Q01DX009 (ip), vehicle: saline 107 % of control | dose: 108.0 mg/kg/injection, schedule: Q01DX009 (ip), vehicle: saline 112 % of control | dose: 178.0 mg/kg/injection, schedule: Q01DX001 (ip), vehicle: saline 100 % of control | dose: 180.0 mg/kg/injection, schedule: Q01DX009 (ip), vehicle: saline 124 % of control | dose: 267.0 mg/kg/injection, schedule: Q01DX001 (ip), vehicle: saline 103 % of control | dose: 400.0 mg/kg/injection, schedule: Q01DX001 (ip), vehicle: saline 109 % of control | dose: 600.0 mg/kg/injection, schedule: Q01DX001 (ip), vehicle: saline 121 % of control

N=Cc1c(O)n(C2CCCCC2)c(=O)n(C2CCCCC2)c1=O
inactive: [6] 105 % of control | [1] 95 % of control | [9] 100 % of control | [2] 96 % of control | [8] 107 % of control | [3] 96 % of control

[O-][n+]1c(Cl)nc(Cl)c(Cl)c1C(Cl)(Cl)Cl
inactive: dose: 12.5 mg/kg/injection, schedule: Q04DX003 (ip), vehicle: other 111 % of control | dose: 25.0 mg/kg/injection, schedule: Q04DX003 (ip), vehicle: other 103 % of control

O=C(CC(SCCN1CCOCC1)c1ccc([N+](=O)[O-])cc1)c1ccccc1 (stereo not drawn)
inactive: dose: 100.0 mg/kg/injection, schedule: Q01DX001 (ip), vehicle: Klucel (hydroxypropylcellulose) (HPC) 104 % of control | dose: 200.0 mg/kg/injection, schedule: Q01DX001 (ip), vehicle: Klucel (hydroxypropylcellulose) (HPC) 96 % of control | dose: 400.0 mg/kg/injection, schedule: Q01DX001 (ip), vehicle: Klucel (hydroxypropylcellulose) (HPC) 107 % of control

CCOCCN=C(N)C(N)=NCCOCC
inactive: dose: 50.0 mg/kg/injection, schedule: Q04DX002 (ip), vehicle: saline with Tween-80 102 % of control | dose: 100.0 mg/kg/injection, schedule: Q04DX002 (ip), vehicle: saline with Tween-80 98 % of control | dose: 200.0 mg/kg/injection, schedule: Q04DX002 (ip), vehicle: saline with Tween-80 94 % of control | dose: 400.0 mg/kg/injection, schedule: Q04DX002 (ip), vehicle: saline with Tween-80 94 % of control
